Assay results published in patent publication US10899785B2, “Aminoglycoside derivatives and uses thereof in treating genetic disorders” (Eloxx Pharmaceuticals Ltd., priority 2015, dated 2021).
Converted amounts (≈) assume the structure as drawn. Like-named read-outs stand apart in the source and are kept apart here.

Columns and labels:
B. subtilis ATCC-6633 = experiment: Antibacterial activity, MIC by double-microdilution; type: cell-based; details: Bacillus subtilis
Protocol: (§1) Comparative antibacterial activities were determined in two representative strains of Gram-negative (E. coli R477-100) and Gram-positive (B. subtilis ATCC-6633) bacteria, by measuring the MIC values using the double-microdilution method according to the National Committee for Clinical Laboratory Standards (NCCLS) (NCCLS. National Committee for Clinical Laboratory Standards, Performance standards for antimicrobial susceptibility testing. Fifth information supplement: Approved Standard M100-S5; Villanova, Pa.: NCCLS, 1994.).
(§2) In all biological tests, all AGs were in their sulfate salt forms, and the concentrations refer to the free amine form of each AG. The eukaryotic and prokaryotic half-maximal-inhibition values (IC50^Euk and IC50^Pro) were quantified in coupled transcription/translation assays by using active luciferase detection as previously described. Minimal inhibitory concentration (MIC) values were determined by using the double-microdilution method.

E. coli R477-100 = experiment: as above; type: cell-based; details: Escherichia coli, R477100, read-out: Antibacterial Activity MIC E. Coli R 477/100
Protocol: as §1, §2

human fibroblast cells = details: against human fibroblast cells; cited from earlier work
[1] = test system: eukaryotic cytoplasmic ribosome; experiment: Eukaryotic in vitro translation inhibition, TNT T7 Quick Coupled Transcription/Translation System, luciferase; type: biochemical; details: NB156 vs NB74, NB157 vs NB124
Protocol: Prokaryotic in vitro translation inhibition by the different aminoglycosides was quantified in coupled transcription/translation assays by using E. coli S30 extract for circular DNA with the pBESTluc plasmid (Promega), according to the manufacturer's protocol. Translation reactions (25 μL) that contained variable concentrations of the tested aminoglycoside were incubated at 37° C. for 60 minutes, cooled on ice for 5 minutes, and diluted with a dilution reagent (tris-phosphate buffer (25 mM, pH 7.8), DTT (2 mM), 1,2-diaminocyclohexanetetraacetate (2 mM), glycerol (10%), Triton X-100 (1%) and BSA (1 mg mL-1)) into 96-well plates. Eukaryotic in vitro translation inhibition was quantified by use of TNT® T7 Quick Coupled Transcription/Translation System with a luciferase T7 control DNA plasmid (Promega), according to the manufacturer protocol. […] In both prokaryotic and eukaryotic systems the luminescence was measured immediately after the addition of the Luciferase Assay Reagent (50 μL; Promega), and the light emission was recorded with a FLx800 Fluorescence Microplate Reader (Biotek). […]
In all biological tests, all AGs were in their sulfate salt forms, and the concentrations refer to the free amine form of each AG. […] Minimal inhibitory concentration (MIC) values were determined by using the double-microdilution method.

[2] = test system: prokaryotic ribosome (E. coli S30 extract); experiment: Prokaryotic in vitro translation inhibition, coupled transcription/translation, E. coli S30 extract, pBESTluc; type: biochemical; details: from IC50^Pro and MIC values of Tables 4 and 6
Protocol: Prokaryotic in vitro translation inhibition by the different aminoglycosides was quantified in coupled transcription/translation assays by using E. coli S30 extract for circular DNA with the pBESTluc plasmid (Promega), according to the manufacturer's protocol. Translation reactions (25 μL) that contained variable concentrations of the tested aminoglycoside were incubated at 37° C. for 60 minutes, cooled on ice for 5 minutes, and diluted with a dilution reagent (tris-phosphate buffer (25 mM, pH 7.8), DTT (2 mM), 1,2-diaminocyclohexanetetraacetate (2 mM), glycerol (10%), Triton X-100 (1%) and BSA (1 mg mL-1)) into 96-well plates. Eukaryotic in vitro translation inhibition was quantified by use of TNT® T7 Quick Coupled Transcription/Translation System with a luciferase T7 control DNA plasmid (Promega), according to the manufacturer protocol. Translation reactions (25 μL) containing variable concentrations of the tested aminoglycoside were incubated at 30° C. for 60 minutes, cooled on ice for 5 minutes, diluted with the dilution reagent and transferred into 96-well plates. In both prokaryotic and eukaryotic systems the luminescence was measured immediately after the addition of the Luciferase Assay Reagent (50 μL; Promega), and the light emission was recorded with a FLx800 Fluorescence Microplate Reader (Biotek). The half-maximal inhibition concentration (IC50) values were obtained from fitting concentration-response curves to the data of at least two independent experiments by using Grafit 5 software.
as §2

[3] = test system: nonsense constructs R3X and R245X (USH1), Q70X (HS), G542X (CF); experiment: Dual luciferase in vitro readthrough assay, p2Luc plasmids, TNT Reticulocyte Lysate; type: biochemical; details: all mutations tested: R3X, R245X, Q70X, G542X; FIGS. 11A-D
Description: DNA fragments derived from PCDH15, CFTR, and IDUA cDNAs, including the tested nonsense mutation or the corresponding wild type (wt) codon, and four to six upstream and downstream flanking codons were created by annealing the following pairs of complementary oligonucleotides:
Fragments were inserted in frame into the polylinker of the p2Luc plasmid between either BamHI and SacI (p.R3X and p.R245X) or SalI and SacI (all the rest) restriction sites. For the in vitro readthrough assays, the obtained plasmids, with addition of the tested aminoglycosides were transcribed and translated using the TNT Reticulocyte Lysate Quick Coupled Transcription/Translation System. Luciferase activity was determined after 90 minutes of incubation at 30° C., using the Dual Luciferase Reporter Assay System (Promega™).
Activity was tested using a collection of dual-luciferase reporter plasmids, containing different sequence contests around premature stop codons derived from the PCDH15, CFTR, and IDUA genes that underline USH1, CF, and MPS I-H, respectively. The exemplified nonsense reporters were R3X and R245X for USH1, G542X for CF, and Q70X for MPS I-H.

[4] = test system: stop codon mutations of Table 5; experiment: Dual-luciferase readthrough of a broad arsenal of stop codon mutations; type: biochemical; details: all tested mutations
Protocol: In these assays, the readthrough of a broad arsenal of stop codon mutations in the presence of NB156 and NB157 was tested. Briefly, NB156 and NB157 were tested at escalating doses for their read-through properties towards the nonsense mutation using the wild-type (WT) sequence of each specific complementary DNA (cDNA) as a control, and plasmids bearing the stop codon mutations in a dual-luciferase assay. DNA fragments derived from different cDNAs were prepared using either the WT or nonsense mutation, in which the sequences from the mutant or wild-type codon were surrounded by four to six upstream and downstream flanking codons. The cDNA sequence was inserted into the polylinker of the p2luc plasmid for each sequence.

In the case of `CN[C@@H]1[C@@H](O)[C@@H](O[C@@H]2[C@@H](O)[C@H](O[C@H]3O[C@H]([C@@H](C)O)[C@@H](O)[C@H](O)[C@H]3N)[C@@H](N)C[C@H]2N)OC[C@]1(C)O` [Compound G418, geneticin, reference compound], the MIC (B. subtilis ATCC-6633; ATCC6633, read-out: Antibacterial Activity MIC B. Subtilis ATCC6633) is listed as less than 1.25 µM, the MIC (E. coli R477-100) is listed as 9 µM (≈ 4.47 µg/mL) and the LD50 (human fibroblast cells) is listed as 0.04 mg/mL.

For `NC[C@H]1O[C@@H](O[C@@H]2[C@@H](O)[C@H](N)C[C@H](N)[C@H]2O[C@H]2O[C@H]([C@H](O)CO)[C@@H](O)[C@H](O)[C@H]2N)[C@@H](O)[C@H]1O` [NB156, (2R, 3S, 4R, 5R, 6S)-5-amino-6-(((1R, 2R, 3S, 4R, 6S)-4,6-diamino-2-(((2S, 3S, 4R, 5R)-5-(aminomethyl)-3,4-dihydroxytetrahydrofuran-2-yl)oxy)-3-hydroxycyclohexyl)oxy)-2-((R)-1,2-dihydroxyethyl)tetrahydro-2H-pyran-3,4-diol], the “fold more specific to the eukaryotic ribosome than structurally related compound” value [1] was 1.85 fold, the “prokaryotic ribosome/protein synthesis inhibition and subsequent antibacterial activity compared with structurally related compound” value [2] was “very similar to those of their structurally related Compounds NB74 and NB124” and the MIC (B. subtilis ATCC-6633; ATCC6633, Table 4, read-out: Antibacterial Activity MIC B. Subtilis ATCC6633) was 34 µM (≈ 16.5 µg/mL). The MIC (E. coli R477-100) was greater than 273 µM, the “readthrough activity compared with gentamicin” value [3] was “significantly better than that of the clinical drug gentamicin” and the “readthrough activity compared with structurally related compound” value [3] was “substantially better than that of the structurally related NB74”. The “stop-codon mutation readthrough activity compared with NB74” value [4] was “more active than NB74”.
